According to patent publication US20100210537A1, “USE OF A DEFENSIN PEPTIDE AS A THERAPEUTIC AGENT” (priority 2007, published 2010):
Where no end group is shown, it is not given here.

Assays:
HIV-1IIIB = test: HIV-1 antiviral assay in CEM-SS cells (MTS readout); type: cell-based
HCMV strain AD169 = test: HCMV plaque formation assay in MRC-5 cells; conditions: for inhibition of HCMV plaque formation as compared to the virus control experiment: 10 micrograms per ml, 7-10 days
Interferon-γ (IFN-γ) = test: Th1/Th2 cytokine profiling assay: IFN-gamma; type: cell-based, Balb/c mice; conditions: 10 micrograms per ml; Ovalbumin-restimulated spleen cells, 72 hours
Experimental: (§1) On day 50, spleens of the mice were harvested (3 weeks after last boost with Ovalbumin). Cells were cultured (2×10^5/well in triplicate) and incubated with culture medium or test peptides-10 micrograms per ml-for 30 min. Thereafter, additional Ovalbumin was added to the cells at 10 micrograms/ml for in vitro restimulation of the cells. 72 hours later, cell supernatants were harvested and assayed using the Becton Dickinson Mouse Th1/Th2 Cytokine CBA Kit.

[1] = tested on: hepatitis B virus (HBV) ayw strain; test: HBV assay in HepG2-2.2.15 cells (TaqMan PCR of secreted HBV DNA); type: cell-based; conditions: 10 micrograms per ml, six days
Excerpt: HepG2-2.2.15 is a stable cell line containing the hepatitis B virus (HBV) ayw strain genome (ATCC Cat. No. CRL-11997). Antiviral compounds blocking any late step of viral replication such as transcription, translation, pregenome encapsidation, reverse transcription, particle assembly and release can be identified and characterized using this cell line. In this assay, an active compound will reduce the production of secreted HBV from cells, measured by utilizing real time quantitative PCR (TaqMan) assay to directly and accurately measure HBV DNA copies.
HepG2-2.2.15 cells were plated in 96-well microtiter plates. After 16-24 hours the confluent monolayer of HepG2-2.2.15 cells was washed and the medium was replaced with complete medium containing test peptides-10 micrograms per ml-in duplicate. […] Six days following the initial administration of the peptides, the cell culture supernatants was collected, treated with pronase and DNAse and then used in a real-time quantitative TaqMan PCR assay. The PCR-amplified HBV DNA was detected in real-time by monitoring increases in fluorescence signals that result from the exonucleolytic degradation of a quenched fluorescence probe molecule that hybridizes to the mplified HBV DNA. […] Antiviral activity was calculated from the reduction in HBV DNA levels (% virus control). […]

Interleukin-2 (IL-2) = test: Th1/Th2 cytokine profiling assay: IL-2; type: cell-based, Balb/c mice; conditions: 10 micrograms per ml; Ovalbumin-restimulated spleen cells, 72 hours
Experimental: as §1

[2] = tested on: Primary Human endothelial cells (HUVEC); test: Endothelial cell migration assay; type: cell-based; conditions: 10 micrograms per ml, 22 hours
Experimental: Thereafter, designated concentration of testing peptides-10 micrograms per ml-was added in duplicate wells.

[3] = tested on: Tumor Necrosis Factor-α (TNF-α); test: Th1/Th2 cytokine profiling assay: TNF-alpha; type: cell-based, Balb/c mice; conditions: 10 micrograms per ml; Ovalbumin-restimulated spleen cells, 72 hours
Experimental: as §1

HUVEC = test: Endothelial tube formation assay; type: cell-based, human; conditions: 10 micrograms per ml, 20 hours
Excerpt: Positive control was vehicle only.

Interleukin-5 (IL-5) = test: Th1/Th2 cytokine profiling assay: IL-5; type: cell-based, Balb/c mice; conditions: 10 micrograms per ml; Ovalbumin-restimulated spleen cells, 72 hours
Experimental: as §1

Interleukin-4 (IL-4) = test: Th1/Th2 cytokine profiling assay: IL-4; type: cell-based, Balb/c mice; conditions: 10 micrograms per ml; Ovalbumin-restimulated spleen cells, 72 hours
Experimental: as §1

Compound: Cc1cn([C@H]2C[C@H](N=[N+]=[N-])[C@@H](CO)O2)c(=O)[nH]c1=O [AZT]
- antiviral activity of positive control compounds (HIV-1IIIB): expected levels of antiviral activity

Compound: Nc1nc(O)c2ncn(COC(CO)CO)c2n1 [Ganciclovir, reference compound]
- antiviral activity of positive control compound (HCMV strain AD169; positive control, HCMV AD169): expected levels of antiviral activity

Compound: CC(C)(C)NC(=O)[C@@H]1CN(Cc2cccnc2)CCN1C[C@@H](O)C[C@@H](Cc1ccccc1)C(=O)N[C@H]1c2ccccc2C[C@H]1O [indinavir]
- antiviral activity of positive control compounds (HIV-1IIIB): expected levels of antiviral activity

Compound: Cys-Tyr-Cys-Arg-Ile-Pro-Ala-Cys-Ile-Ala-Gly-Glu-Arg-Arg-Tyr-Gly-Thr-Cys-Ile-Tyr-Gln-Gly-Arg-Leu-Trp-Ala-Phe-Cys-Cys-OH (CYCRIPACIAGERRYGTCIYQGRLWAFCC-OH; cysteine pairing not given here) [Peptide 1]
- change of the production of IFN-gamma in murine spleen cells (Interferon-γ (IFN-γ)): did not significantly change
- inhibition of HBV replication as compared to the virus control infection [1]: did not inhibit
- decrease of the production of IL-2 in murine spleen cells (Interleukin-2 (IL-2)): 100%
- inhibition of the migration of human endothelial cells [2]: 17%
- change of the production of TNF-alpha in murine spleen cells [3]: did not significantly change
- inhibition of the tube formation of human endothelial cells (HUVEC): 21%
- inhibition of HCMV plaque formation as compared to the virus control experiment (HCMV strain AD169): did not inhibit
- decrease of the production of IL-5 in murine spleen cells (Interleukin-5 (IL-5)): 38.4%
- decrease of the production of IL-4 in murine spleen cells (Interleukin-4 (IL-4)): 49.4%

Compound: Ser-Glu-Ile-Trp-Arg-Asp-Ile-Asp-Phe-OH (SEIWRDIDF-OH) [Peptide 2]
- change of the production of IFN-gamma in murine spleen cells (Interferon-γ (IFN-γ)): did not significantly change
- inhibition of HBV replication as compared to the virus control infection [1]: 21.6%
- decrease of the production of IL-2 in murine spleen cells (Interleukin-2 (IL-2)): did not significantly change
- inhibition of the migration of human endothelial cells [2]: 18%
- change of the production of TNF-alpha in murine spleen cells [3]: did not significantly change
- inhibition of the tube formation of human endothelial cells (HUVEC): 19%
- inhibition of HCMV plaque formation as compared to the virus control experiment (HCMV strain AD169): did not inhibit
- decrease of the production of IL-5 in murine spleen cells (Interleukin-5 (IL-5)): did not significantly change
- decrease of the production of IL-4 in murine spleen cells (Interleukin-4 (IL-4)): did not significantly change
